Results from US20240115557A1, “INHIBITORS OF RNA-GUIDED NUCLEASES AND USES THEREOF” (The Brigham and Women's Hospital, Inc., priority 2022, published 2024).

Assays:
SpCas9 [1] = target: T1, SpCas9 (Streptococcus pyogenes serotype M1, UniProt Q99ZW2); experiment: eGFP disruption assay, SpCas9, U2OS.eGFP.PEST cells; type: cell-based; details: for Normalized Z rep1 / Z score Rep1: replicate 1; for SpCas9 eGFP disruption Rep1: replicate 1, raw readout; for Normalized Z rep2 / Z socre Rep2: replicate 2; for SpCas9 eGFP disruption Rep2: replicate 2, raw readout
Text: In some embodiments, the secondary assay may be an EGFP disruption assay. In such assay, a quantitative human cell-based reporter assay that enables rapid quantitation of targeted nuclease activities is used to characterize off-target cleavage of Cas9-based RNA guided endonucleases. In this assay, the activities of nucleases targeted to a single integrated EGFP reporter gene can be quantified by assessing loss of fluorescence signal in human U2OS.EGFP cells caused by inactivating frameshift insertion/deletion (indel) mutations introduced by error prone non-homologous end-joining (NHEJ) repair of nuclease-induced double-stranded breaks (DSBs).
In one protocol, U2OS.EGFP cells harboring a single integrated copy of an EGFP-PEST fusion gene are cultured (see e.g., Reyon et al., Nat Biotech 30, 460-465 (2012), which is herein incorporated by reference in its entirety). For transfections, 200,000 cells are Nucleofected with gRNA expression plasmid and pJDS246 together with 30 ng of a Td-tomato-encoding plasmid using the SE Cell Line 4D-Nucleofector™ X Kit (Lonza) according to the manufacturer's protocol. Cells are analyzed 2 days post-transfection using a BD LSRII flow cytometer. Transfections for optimizing gRNA/Cas9 plasmid concentration are performed in triplicate and all other transfections are performed in duplicate. PCR amplification is used for sequence verification of endogenous human genomic sites. PCR reactions are performed using Phusion Hot Start II high-fidelity DNA polymerase (NEB). Loci are amplified using touchdown PCR (98° C., 10 s; 72-62° C., −1° C./cycle, 15s; 72° C., 30 s] 10 cycles, [98° C., 10s; 62° C., 15s; 72° C., 30 s] 25 cycles). Alternatively, PCR for other targets is performed with 35 cycles at a constant annealing temperature of 68° C. or 72° C., and 3% DMSO or IM betaine, if necessary. PCR products are analyzed on a QIAXCEL capillary electrophoresis system to verify both size and purity. Validated products are treated with ExoSap-IT (Affymetrix) and sequenced by the Sanger method (MGH DNA Sequencing Core) to verify each target site.
Primary and secondary screening. The primary screen assayed a selection of unique chemical scaffolds derived from commercially available compounds and known bioactive molecular libraries (Table 7). Auto-fluorescent compounds were removed by a counter screen. Overall, the CAA was used to assay 122,409 small molecules with over 2,500 unique chemical scaffolds (FIG. 64F, Table 7). Of these compounds, 547 were selected as hits (Z score >3 in both replicates) for testing in orthogonal cell-based secondary assays. Hits were tested in duplicate in an eGFP disruption assay, wherein U2OS.eGFP.PEST cells^33 transfected with SpCas9 plasmid and eGFP-targeting gRNA plasmid were incubated with 20 μM of the compounds. In this assay, any compound that inhibited SpCas9 would rescue the loss of eGFP fluorescence. Here, toxic and auto-fluorescent compounds with a high GFP signal in cells were removed as false positives. […] Next, Applicants tested the 15 compounds in a luminescence-based gain-of-signal HiBiT knock-in assay, which involves SpCas9-mediated homology-directed tagging of GAPDH with a short peptide that luminesces upon complementation with a subunit derived from nanoluciferase.^34 Complementarily, the eGFP-disruption assay is fluorescence-based and involves error-prone DNA repair. As a counter-screen to remove false positives caused by cell death (viability <80%), the cell viability was measured after incubation.
For SAR studies and dose-response studies, 300,000 U2OS.eGFP.PEST cells were nucleofected with 300 ng of SpCas9 plasmid (Addgene #43861) and 30 ng of eGFP-targeting gRNA plasmid (Addgene #47511)^33 using SE Cell Line 4D-Nucleofector X Kit (Lonza) following the pulse program of DN-100. For RNP-based genome editing, 10 pmol of SpCas9 (GenScript #Z03385) and 12 pmol of gRNA were mixed and incubated for 5 min. […]

SpCas9 [2] = target: T1, SpCas9; experiment: Strand displacement assay (SDA) / cumulative activity assay (CAA), SpCas9 primary screen; type: biochemical; details: Primary Screen (150 min); for Normalized Z score 1: replicate 1; for Normalized Z score 2: replicate 2
Method: Screening of inhibitors was via a high throughput pipeline, as depicted in FIG. 29. The first screening is via a strand displacement assay (SDA) for detecting nuclease activity (FIG. 27A, 28A). The Cpf1/Cas12 protein/DNA complex has a different structure from Cas9 and requires optimization of the potential fluorophore attachment sites (Yamano, T et al., Cell, 2016). (FIG. 28A). Next screened compounds are evaluated in an eGFP cell assay, and for eGFP dose. Those compounds are further narrowed via a HiBiT assay and finally evaluated in the surveyor assay. SAR evaluations are performed to arrive at lead compounds for further evaluations and variations. General methodology for the assays is as described in at [0253]-[0301] of U.S. Patent Application 62/831,143 filed Apr. 8, 2019, incorporated herein by reference.
The 3′ end of the displacing single-stranded DNA was labeled with a quencher. Following nuclease cleavage of the substrate, the 3′-labeled quenching DNA strand (present in excess) could outcompete the weakly held 3′ strand to anneal to the 5′ strand. The resulting FRET fluorescence quenching provides an optical readout for nuclease activity (FIG. 62A).
Typically, SpCas9: gRNA (1:1.2 ratio) RNP was pre-formed at 1 μM in Cas9 assay buffer (20 mM Tris-HCl, pH=7.5, 100 mM KCl, 5 mM MgCl2) for 5 min at 4° C. before diluting to 10 nM in Cas9 assay buffer (2× final concentration). 25 μL of the Cas9 2× stock was manually dispensed to a black 384-well plate (Corning 3575) using electronic pipette. […] Following this, pre-annealed Alexa-Fluor 647 labeled substrate and quencher were also diluted to 1 nM and 5 nM in Cas9 assay buffer, respectively (2× stock solution). Next, 25 μL of the substrate/quencher solution was added manually to each well of the Cas9-containing 384-well plates using an electronic pipette and was incubated at 37° C. for 2.5 h. Fluorescent signals were read with the microplate reader set to read Alexa-Fluor 647 fluorescence. Assay was performed similarly with SaCas9 and FnCas12a using the respective enzyme, gRNA, substrate, and quencher oligos. […]

T1 sequence (Q99ZW2 whole entry): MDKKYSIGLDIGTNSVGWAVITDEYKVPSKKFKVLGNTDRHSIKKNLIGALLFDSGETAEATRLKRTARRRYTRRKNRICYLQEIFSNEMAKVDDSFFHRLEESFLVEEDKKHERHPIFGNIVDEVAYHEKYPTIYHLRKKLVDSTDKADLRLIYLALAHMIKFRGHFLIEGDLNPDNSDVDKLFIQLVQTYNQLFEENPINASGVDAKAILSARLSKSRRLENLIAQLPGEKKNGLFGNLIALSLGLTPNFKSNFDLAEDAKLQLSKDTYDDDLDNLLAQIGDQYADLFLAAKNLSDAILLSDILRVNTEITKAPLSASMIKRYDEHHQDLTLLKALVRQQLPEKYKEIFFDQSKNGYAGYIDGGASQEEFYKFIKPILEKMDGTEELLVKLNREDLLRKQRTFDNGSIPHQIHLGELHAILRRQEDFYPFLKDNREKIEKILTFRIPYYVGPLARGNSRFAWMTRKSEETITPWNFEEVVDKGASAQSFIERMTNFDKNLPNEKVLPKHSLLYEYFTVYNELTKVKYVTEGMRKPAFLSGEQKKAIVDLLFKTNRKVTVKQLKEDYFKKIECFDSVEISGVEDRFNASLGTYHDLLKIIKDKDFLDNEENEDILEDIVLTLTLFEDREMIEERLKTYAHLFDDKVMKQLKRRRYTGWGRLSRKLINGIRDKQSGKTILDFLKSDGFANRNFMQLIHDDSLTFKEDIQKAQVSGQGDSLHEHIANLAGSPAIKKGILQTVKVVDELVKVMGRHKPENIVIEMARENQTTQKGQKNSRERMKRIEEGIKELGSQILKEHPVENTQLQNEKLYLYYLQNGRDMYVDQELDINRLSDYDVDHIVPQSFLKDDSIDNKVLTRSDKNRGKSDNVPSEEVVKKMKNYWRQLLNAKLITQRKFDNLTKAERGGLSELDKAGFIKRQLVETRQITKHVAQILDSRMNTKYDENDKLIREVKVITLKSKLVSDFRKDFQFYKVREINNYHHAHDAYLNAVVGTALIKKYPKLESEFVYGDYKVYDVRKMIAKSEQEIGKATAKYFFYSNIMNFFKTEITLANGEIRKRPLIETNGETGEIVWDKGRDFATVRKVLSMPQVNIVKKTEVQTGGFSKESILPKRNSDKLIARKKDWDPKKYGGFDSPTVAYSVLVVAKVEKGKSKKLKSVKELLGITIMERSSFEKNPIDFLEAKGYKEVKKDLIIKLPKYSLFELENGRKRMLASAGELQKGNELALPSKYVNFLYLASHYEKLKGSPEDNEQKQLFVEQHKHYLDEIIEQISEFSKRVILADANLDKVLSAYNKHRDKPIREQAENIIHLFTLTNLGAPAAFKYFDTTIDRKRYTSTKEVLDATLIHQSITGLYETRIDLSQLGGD

Structure (SMILES) | Normalized Z rep1 (SpCas9 [1]) | Z score Rep1 (SpCas9 [1]) | SpCas9 eGFP disruption Rep1 (SpCas9 [1]) | Normalized Z rep2 (SpCas9 [1]) | Z socre Rep2 (SpCas9 [1]) | SpCas9 eGFP disruption Rep2 (SpCas9 [1]) | avg z score primary (SpCas9 [2]) | Average Normalized Z score (SpCas9 [2]; average of replicates) | Normalized Z score 1 (SpCas9 [2]) | Normalized Z score 2 (SpCas9 [2]) | Average Normalized Z score (SpCas9 [2])
COc1ccc(-c2cc(N3CCN(C(=O)c4ccc(C(C)(C)C)cc4)CC3)ncn2)cc1 [Compound M130-0012] | −0.10 | −0.67 | 74.104 | −0.03 | −0.27 | 75.755 | 20.61 | 0.28 | 0.28 | 0.28 | –
Cc1ccc(-c2nc(CN3CCCC(C(=O)Nc4cc(C)ccc4O)C3)no2)cc1 (stereo not shown) [Compound J065-2258] | −0.12 | −1.25 | 73.517 | −0.06 | −1.43 | 74.702 | 5.05 | – | 0.10 | 0.14 | 0.12
CCn1c(=O)c(C(=O)Nc2nccc(C)n2)c(O)c2ccccc21 [Compound G650-0193] | −0.05 | −0.45 | 63.431 | −0.43 | −6.43 | 55.676 | 11.65 | – | 0.19 | 0.23 | 0.21
O=C(N/N=C/c1ccc(O)c(O)c1O)c1cccc(S(=O)(=O)Nc2ccccc2Cl)c1 [Compound T0506-5702] | – | – | – | – | – | – | 4.48 | 0.07 | 0.07 | 0.07 | –
COc1ccc(C(=O)Oc2cc(-c3ccc(OC)c(OC)c3)cc(=O)c3c(C)oc(C)c23)cc1 [Compound D132-0053] | – | – | – | – | – | – | 3.32 | – | 0.21 | 0.19 | 0.20
CCCN(CCC)C1=CC(=O)C(C)=C(C)C1=O [Compound T0502-3042] | – | – | – | – | – | – | 4.92 | 0.31 | 0.32 | 0.30 | –
O=C(Nc1nnc(C2CC2)s1)c1ccc2ncsc2c1 [Compound T0514-1693] | – | – | – | – | – | – | 5.62 | 0.07 | 0.07 | 0.07 | –
O=C(COC(=O)c1cc(O)c(O)c(O)c1)NC1CCCc2ccccc21 (stereo not shown) [Compound T0515-9025] | – | – | – | – | – | – | 4.00 | 0.25 | 0.26 | 0.23 | –
O=C([O-])C(O)Cc1ccc(O)c(O)c1.[Na+] (stereo not shown) [Compound S2401] | – | – | – | – | – | – | 4.93 | 0.25 | 0.22 | 0.29 | –
O=C(O)C(S)=C/C=C\c1ccccc1 [Compound T5441826] | – | – | – | – | – | – | 4.20 | 0.05 | 0.03 | 0.06 | –
CN1CCN(c2ccc(CNC(=O)Cn3ccc4c(SCc5ccccc5)nccc43)cc2)CC1 [Compound M056-0617] | – | – | – | – | – | – | 4.82 | 0.06 | 0.05 | 0.07 | –
Oc1c(C(c2cccs2)N2CCCCC2)ccc2cccnc12 (stereo not shown) [Compound T0515-1927] | – | – | – | – | – | – | 10.34 | 0.68 | 0.70 | 0.67 | –
CCc1ccc(NC(=O)C(C#N)=Cc2cc(C#N)n(C)c2C)cc1 [Compound T5229649] | – | – | – | – | – | – | 4.90 | 0.07 | 0.06 | 0.08 | –
CCCCC(=O)Nc1ccc(N2CCC(C(N)=O)(N3CCCCC3)CC2)c(C(=O)O)c1 [Compound G889-0171] | – | – | – | – | – | – | 3.38 | – | 0.07 | 0.07 | 0.07
O=C(CCC(=O)c1ccc(F)cc1)OC1CCOC1=O (stereo not shown) [Compound T0512-8635] | – | – | – | – | – | – | 4.05 | 0.04 | 0.04 | 0.04 | –
COc1ccc(-n2c(N(C(C)=O)C(C)=O)c(C#N)c3nc4ccccc4nc32)cc1 [Compound T0503-6223] | – | – | – | – | – | – | 14.21 | 0.16 | 0.16 | 0.16 | –
